The source of these data is patent US9546153B2, “Bicyclic heterocycle substituted pyridyl compounds useful as kinase modulators” (BRISTOL-MYERS SQUIBB COMPANY, priority 2012, dated 2017).

The structures appear in SMILES notation. Read-outs that look alike come from different tables or passages of the source.

Test [1] relates to TLR2 induced IL-6 in peripheral blood mononuclear cells (PBMCs). Put plainly: PBMC TLR2 Induced IL-6 Assay. To be noted: human PBMCs, 10 μg/ml lipoteichoic acid for 5 hours, IL-6 by ELISA, value without asterisk, read-out: Cell IC50. The class given is cell-based, human. The method, boiled down: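 IL-6 ELISA of supernatants after a 5 h challenge with the TLR2 agonist lipoteichoic acid (10 μg/ml). Before stimulation, human PBMCs (250000 cells/well; RPMI, 10% heat-inactivated FCS) received compound for 30 min at 37° C. Values given as IC50 or EC50.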

Test [2] has as its target IRAK4 (Homo sapiens (Human), UniProt Q9NWZ3). The test is described as follows: IRAK4 Inhibition Assay. To be noted: ATP 500 μM; IRAK4 0.6 nM; 60 min at room temperature. The class given is biochemical. The method, then:
The assays were performed in U-bottom 384-well plates. […] The reaction was initiated by the combination of IRAK4 with substrates and test compounds. The reaction was incubated at room temperature for 60 min. and terminated by adding 45 μL of 35 mM EDTA to each sample. The reaction mixture was analyzed on the Caliper LABCHIP® 3000 (Caliper, Hopkinton, Mass.) by electrophoretic separation of the fluorescent substrate and phosphorylated product.

IRAK4, sequence (Q9NWZ3 whole entry, species assumed): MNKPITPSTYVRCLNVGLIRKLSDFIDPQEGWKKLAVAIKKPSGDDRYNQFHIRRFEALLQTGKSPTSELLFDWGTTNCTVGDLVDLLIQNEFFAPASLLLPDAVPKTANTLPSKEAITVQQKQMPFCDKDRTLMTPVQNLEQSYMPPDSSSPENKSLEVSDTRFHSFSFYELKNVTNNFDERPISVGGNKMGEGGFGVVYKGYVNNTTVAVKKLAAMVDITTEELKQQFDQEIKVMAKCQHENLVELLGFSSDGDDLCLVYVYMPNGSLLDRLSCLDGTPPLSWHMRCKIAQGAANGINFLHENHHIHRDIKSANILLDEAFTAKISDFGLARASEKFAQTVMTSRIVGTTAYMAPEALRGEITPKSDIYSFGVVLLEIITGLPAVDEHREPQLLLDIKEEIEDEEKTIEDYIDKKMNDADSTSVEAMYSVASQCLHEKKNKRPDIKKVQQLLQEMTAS

As for `CC(O)[C@H](F)CNC(=O)c1cnc(Nc2ccc3ncsc3c2)cc1NC1CCCC1` (stereo partly shown) [Example 28], the IC50 is 195 nM in test [1] (Homo sapiens, PBMC, 5 h) and 7.8 nM in test [2].

For the compound `CC(C)(O)[C@H](F)CNC(=O)c1cnc(Nc2ccc3ncc(F)cc3n2)cc1NC1CC1` [Example 429], the IC50 came out at 128 nM in test [1] (Homo sapiens, PBMC, 5 h) and 2.1 nM in test [2].

In the case of `CC(C)(O)[C@@H](F)CNC(=O)c1cnc(Nc2ccc3ncsc3c2)cc1NC1CC1` [Example 366, (S)-6-(benzo[d]thiazol-6-ylamino)-4-(cyclopropylamino)-N-(2-fluoro-3-hydroxy-3-methylbutyl)nicotinamide], the IC50 in test [1] (Homo sapiens, PBMC, 5 h) was 734 nM; in test [2], 9.3 nM.

With `CC(C)Nc1cc(Nc2nc3scnc3cc2F)ncc1C(=O)NCC(F)(F)C(C)(C)O` [Example 483], the IC50 in test [1] (Homo sapiens, PBMC, 5 h) worked out at 463 nM; in test [2] it was 3.4 nM.

As to `CCCNc1cc(Nc2ccc3ncsc3c2)ncc1C(=O)NC[C@@H](F)C(C)(C)O` [Example 159], the IC50 in test [1] (Homo sapiens, PBMC, 5 h) amounted to 146 nM; in test [2], 3.2 nM.

Take `CC(C)(O)[C@H](F)CNC(=O)c1cnc(Nc2ccc3ncsc3c2)cc1N[C@H](CO)c1ccccc1` [Example 63]: the IC50 in test [1] (Homo sapiens, PBMC, 5 h) came out at 632 nM; in test [2], 8.6 nM.

In the case of `CC(C)(O)[C@H](F)CNC(=O)c1cnc(Nc2ccc3ncccc3n2)cc1NC1CCOCC1F` (stereo partly shown) [Example 438], the IC50 in test [1] worked out at 168 nM; in test [2], 11.6 nM.

`O=C(NC[C@@H](F)CO)c1cnc(Nc2ccc3ncsc3c2)cc1NC1CCCC1` [Example 150]: the IC50 in test [1] (Homo sapiens, PBMC, 5 h) is 395 nM; in test [2] it was 5.9 nM.

Turning to `Cc1cn2nc(Nc3cc(NC4CC4)c(C(=O)NC[C@@H](F)C(C)(C)O)cn3)ccc2n1` [Example 278], the IC50 was 618 nM in test [1] (Homo sapiens, PBMC, 5 h) and 10.8 nM in test [2].

Regarding `CC(C)C(O)[C@H](F)CNC(=O)c1cnc(Nc2ccc3ncsc3c2)cc1N[C@@H]1CCC[C@H]1O` (stereo partly shown) [Example 331], the IC50 is 163 nM in test [1] and 2.4 nM in test [2].

For the compound `CC(C)(O)[C@H](F)CNC(=O)c1cnc(Nc2ccc3ncsc3c2)cc1Nc1ccc(C(=O)NCCO)cc1` [Example 325], the IC50 in test [1] (Homo sapiens, PBMC, 5 h) was determined as 853 nM; in test [2], 4.9 nM.

Regarding `CC(C)(O)[C@H](F)CNC(=O)c1cnc(Nc2ccc3ncsc3c2)cc1NC1CCC(F)C1` (single isomer, unassigned) [Example 365, 6-(benzo[d]thiazol-6-ylamino)-N-(2-fluoro-3-hydroxy-3-methylbutyl)-4-(3-fluorocyclopentylamino)nicotinamide], the IC50 in test [1] turned out to be 97 nM; in test [2], 5.8 nM.

With `CC(C)(O)[C@H](F)CNC(=O)c1cnc(Nc2ccc3ncc(C#N)cc3n2)cc1NC1CCC(F)C1` (stereo partly shown) [Example 413], the results for the half-inhibitory concentration (IC50) in test [1] and in test [2] were 226 nM and 6.3 nM, respectively.

Consider `CC(C)(O)[C@H](F)CNC(=O)c1cnc(Nc2ccc3ncsc3c2)cc1NC1CCC(F)C1` (single isomer, unassigned) [Example 362, 6-(benzo[d]thiazol-6-ylamino)-N-(2-fluoro-3-hydroxy-3-methylbutyl)-4-(3-fluorocyclopentylamino)nicotinamide], for which the 50% inhibitory concentration (IC50) worked out at 44 nM in test [1] and 2.9 nM in test [2].

In the case of `CCC(C)Nc1cc(Nc2ccc3ncsc3c2)ncc1C(=O)NC[C@@H](F)C(C)(C)O` (stereo partly shown) [Example 138], the IC50 in test [1] was 302 nM; in test [2], 1.9 nM.

As for `CC(C)(O)[C@H](F)CNC(=O)c1cnc(Nc2ccn3ncc(F)c3n2)cc1NC1CC(F)(F)C1` [Example 265], the IC50 in test [1] (Homo sapiens, PBMC, 5 h) was found to be 217 nM; in test [2], 3.3 nM.

For the compound `CC(C)(O)[C@H](F)CNC(=O)c1cnc(Nc2ccc3ncsc3c2)cc1NC1CCCC1` [Example 33, (R)-6-(benzo[d]thiazol-6-ylamino)-4-(cyclopentylamino)-N-(2-fluoro-3-hydroxy-3-methylbutyl)nicotinamide], the concentration for half-maximal inhibition (IC50) in test [1] (Homo sapiens, PBMC, 5 h) was 64 nM; in test [2], 3.7 nM.

With `CC(C)Nc1cc(Nc2ccc3ncsc3c2)ncc1C(=O)NCC(F)(F)C(C)(C)O` [Example 171], the IC50 in test [1] (Homo sapiens, PBMC, 5 h) was determined as 571 nM; in test [2], 4.3 nM.

For the compound `CC(C)(O)[C@H](F)CNC(=O)c1cnc(Nc2nc3scnc3cc2F)cc1NCC(F)(F)F` [Example 519], the concentration for half-maximal inhibition (IC50) in test [1] (Homo sapiens, PBMC, 5 h) came to 634 nM; in test [2] it was 2.2 nM.

As to `CC(C)Nc1cc(Nc2ccc3ncncc3c2)ncc1C(=O)NC[C@@H](F)C(C)(C)O` [Example 48], the half-inhibitory concentration (IC50) in test [1] (Homo sapiens, PBMC, 5 h) turned out to be 511 nM; in test [2] it was 3.1 nM.

For the compound `CNC(=O)[C@H]1CC[C@H](NC(=O)c2cnc(Nc3nc4ccnn4cc3F)cc2NC2CCOCC2)CC1` [Example 509], the IC50 stood at 1200 nM in test [1] (Homo sapiens, PBMC, 5 h) and 9.5 nM in test [2].

On to `CC(C)Nc1cc(Nc2ccn3ncc(F)c3c2)ncc1C(=O)NC[C@@H](F)C(C)(C)O` [Example 288], for which the IC50 in test [1] (Homo sapiens, PBMC, 5 h) amounted to 134 nM; in test [2], 1 nM.

For the compound `CC(C)(O)[C@H](F)CNC(=O)c1cnc(Nc2ccc3ncc(C#N)cc3n2)cc1NC1CCCC1(F)F` (stereo partly shown) [Example 441], the half-maximal inhibitory concentration (IC50) in test [1] (Homo sapiens, PBMC, 5 h) turned out to be 28 nM; in test [2] it was 1.8 nM.

For `CC(O)([C@H](F)CNC(=O)c1cnc(Nc2ccc3ncsc3c2)cc1NC1CC1)C(F)(F)F` (stereo partly shown) [Example 20], the IC50 was 562 nM in test [1] and 4.9 nM in test [2].

`CC(C)(O)[C@H](F)CNC(=O)c1cnc(Nc2ccc3ncsc3c2)cc1NC1CC2CCC1C2` (stereo partly shown) [Example 89]: the 50% inhibitory concentration (IC50) in test [1] (Homo sapiens, PBMC, 5 h) is 32 nM; in test [2], 2.6 nM.

With `CC(C)(O)[C@H](F)CNC(=O)c1cnc(Nc2ccc3ncccc3c2)cc1NC1CCCC1(F)F` (stereo partly shown) [Example 360], the concentration for half-maximal inhibition (IC50) amounted to 73 nM in test [1] (Homo sapiens, PBMC, 5 h) and 2.8 nM in test [2].

In the case of `CC(C)(O)[C@H](F)CNC(=O)c1cnc(Nc2ccc3ncsc3c2)cc1NC12CCC(N)(CC1)C2` [Example 140], the half-inhibitory concentration (IC50) was determined as 219 nM in test [1] (Homo sapiens, PBMC, 5 h) and 2.3 nM in test [2].

In the case of `CC(C)Nc1cc(Nc2ccn3ncc(Cl)c3n2)ncc1C(=O)NC[C@@H](F)C(C)(C)O` [Example 262], the values for the IC50 in test [1] and in test [2] were 141 nM and 2.9 nM, respectively.

Regarding `CC(C)(C)Nc1cc(Nc2ccn3nccc3c2)ncc1C(=O)NC[C@@H](F)C(C)(C)O` [Example 291], the IC50 was 283 nM in test [1] (Homo sapiens, PBMC, 5 h) and 7 nM in test [2].

As for `CC(C)(O)[C@H](F)CNC(=O)c1cnc(Nc2ccn3nccc3n2)cc1Nc1ccc(S(C)(=O)=O)cc1` [Example 383], the IC50 in test [1] (Homo sapiens, PBMC, 5 h) worked out at 194 nM; in test [2] it was 6.3 nM.

For `CC(C)Nc1cc(Nc2ccc3ncsc3c2)ncc1C(=O)NCC[C@@H](C)NC(=O)OC(C)(C)C` [Example 175], the IC50 in test [1] (Homo sapiens, PBMC, 5 h) is 402 nM; in test [2], 5.1 nM.

As for `CC(C)Nc1cc(Nc2ccc3ncsc3c2)ncc1C(=O)NCC[C@@H](C)NC(=O)CN(C)C` [Example 192], the IC50 came out at 264 nM in test [1] (Homo sapiens, PBMC, 5 h) and 6.1 nM in test [2].

With `CC(C)(O)[C@H](F)CNC(=O)c1cnc(Nc2cc3scnc3cc2F)cc1NC1CCCOC1` (stereo partly shown) [Example 517], the IC50 was 1290 nM in test [1] (Homo sapiens, PBMC, 5 h) and 6 nM in test [2].

Take `CC(C)(O)[C@H](F)CNC(=O)c1cnc(Nc2ccc3ncc(C(N)=O)cc3n2)cc1NC1CCC1` [Example 444]: the IC50 in test [1] (Homo sapiens, PBMC, 5 h) was found to be 55 nM; in test [2], 2.3 nM.

Take `CC(C)Nc1cc(Nc2ccc3ncsc3c2)ncc1C(=O)NC12CCC(C(=O)NCC(C)(C)O)(CC1)CC2` [Example 226]: the concentration for half-maximal inhibition (IC50) in test [1] (Homo sapiens, PBMC, 5 h) was determined as 274 nM; in test [2], 3.4 nM.

For the compound `O=C(NC1CCC(O)CC1)c1cnc(Nc2ccc3ncsc3c2)cc1NC1CCCC1F` (stereo not shown) [Example 352], the IC50 in test [1] was 245 nM; in test [2], 3.8 nM.

On to `CC(=O)NCCNC(=O)c1cnc(Nc2ccc3ncsc3c2)cc1NC1CCCC1` [Example 152], for which the IC50 was found to be 596 nM in test [1] (Homo sapiens, PBMC, 5 h) and 7.5 nM in test [2].

For `CCC(O)(CC)[C@H](F)CNC(=O)c1cnc(Nc2cc3scnc3cn2)cc1NC1CC1` [Example 403], the IC50 in test [1] (Homo sapiens, PBMC, 5 h) was 1480 nM; in test [2], 21 nM.

Consider `CC(C)(O)c1cnc(Nc2cc(Nc3ccn4nccc4n3)ncc2C(=O)NC[C@@H](F)C(C)(C)O)s1` [Example 421], for which the IC50 in test [1] (Homo sapiens, PBMC, 5 h) came to 131 nM; in test [2], 3.3 nM.

As for `CC(C)(O)[C@H](F)CNC(=O)c1cnc(Nc2ccc3ncsc3c2)cc1NC1CC1` [Example 42], the concentration for half-maximal inhibition (IC50) in test [1] (Homo sapiens, PBMC, 5 h) was 228 nM; in test [2], 2.7 nM.

In the case of `CC(C)Nc1cc(Nc2ccc3ncsc3c2)ncc1C(=O)NCC[C@@H](C)NC(=O)CCCCC(C)(C)O` [Example 191], the half-maximal inhibitory concentration (IC50) in test [1] (Homo sapiens, PBMC, 5 h) stood at 451 nM; in test [2] it was 3.4 nM.

`CC(C)(O)[C@H](F)CNC(=O)c1cnc(Nc2ccc3ncsc3c2)cc1NC1CC(F)(F)C1` [Example 121]: the half-maximal inhibitory concentration (IC50) stood at 345 nM in test [1] (Homo sapiens, PBMC, 5 h) and 2 nM in test [2].

As to `CC(C)(O)[C@H](F)CNC(=O)c1cnc(Nc2ccc3ncsc3c2)cc1NC(C1CC1)C1CC1` [Example 101], the IC50 in test [1] (Homo sapiens, PBMC, 5 h) was determined as 570 nM; in test [2], 54.8 nM.

Regarding `CC(C)(O)[C@H](F)CNC(=O)c1cnc(Nc2ccn3ncc(F)c3n2)cc1NC1CCC1` [Example 252], the IC50 in test [1] (Homo sapiens, PBMC, 5 h) was determined as 173 nM; in test [2], 4.2 nM.

As to `CC(C)(O)[C@H](F)CNC(=O)c1cnc(Nc2ccc3ncsc3c2)cc1NC1C2CCCC21` (stereo partly shown) [Example 109], the half-inhibitory concentration (IC50) in test [1] was 454 nM; in test [2] it was 5.8 nM.

With `CC(C)(O)[C@H](F)CNC(=O)c1cnc(Nc2nc3scnc3cc2F)cc1NC1CCOCC1F` (stereo partly shown) [Example 469], the IC50 is 476 nM in test [1] (Homo sapiens, PBMC, 5 h) and 3.1 nM in test [2].

Take `CC(C)(O)[C@H](F)CNC(=O)c1cnc(Nc2ccc3ncsc3c2)cc1NC1COCCC1F` (stereo partly shown) [Example 235]: the IC50 in test [1] (Homo sapiens, PBMC, 5 h) is 263 nM; in test [2], 1.7 nM.
